Laboratory results as given in patent US12036212B2, “Enhancement of tumor response to chemotherapy by activation of the asmase/ceramide pathway through timed administration of a short-acting anti-angiogenic agent” (Memorial Sloan-Kettering Cancer Center, priority 2014, dated 2024).

Legend:
BAEC = test: Apoptosis in vitro (Hoechst nuclear staining) in BAEC; format: cell-based, bovine; conditions: bovine endothelial cells; cisplatin up to 50 μM; etoposide 50 μM alone, 8 hours
Protocol: Apoptosis was assessed in vitro by examining morphologic changes in nuclear chromatin using bis-benzimide trihydrochloride (Hoechst #33258; Sigma-Aldrich, Milwaukee WI). BAEC and HCAEC monolayer cultures were first detached using 0.25% trypsin and 0.02% EDTA in HBSS and then combined with the floating population of cells. The cell pellet was washed in PBS, resuspended in 3% paraformaldehyde, and incubated for 10 min at 22° C. Following the removal of fixative, cells were resuspended in PBS containing 8 μg/ml of Hoechst-33258. Following a 15-min incubation at 22° C., cells were placed on a glass slide, and scored for the incidence of apoptotic chromatin changes using fluorescence microscope.
Since the ASMase/ceramide pathway is known to play a critical role in endothelial injury and dysfunction, BAEC and HCAEC were treated with paclitaxel (100 nM), etoposide (50 μM), and cisplatin (0.1-50 μM), and endothelial apoptosis was assessed.
To set the basis for experiments involving evaluation of anti-angiogenic therapy in combination with chemotherapy, and the role of ASMase/ceramide pathway in this process, the effects of various factors on the chemotherapy induced cell death were assessed. BAEC were pre-incubated for 30 min with bFGF (2 ng/mL), VEGF (2 ng/mL) or nystatin (30 μg/mL) prior to treatment with etoposide (50 μM), and apoptosis was evaluated after 8 hours using bis-benzamide trihydrochloride staining (FIG. 3).

ASMase = ASMase activation in HCAEC; format: cell-based, human; conditions: cisplatin 0.1-50 μM
Protocol: HCAEC were obtained from Clonetics™ Coronary Artery Endothelial Cell Systems (Cambrex Bio Science Inc.). For HCAEC culturing and sub-culturing Clonetics cell system components were used: EBM®-2, Endothelial Cell Basal Medium-2 with addition of Clonetics EGM-2-MV SingleQuots containing growth supplements (Cambrex) (Biomedical Technologies, Inc.). For sub-culturing, monolayers were dissociated with Clonetics® Trypsin/EDTA solution for 2-3 min at 22° C. at a split ratio of 1:4 to expand the cell population for experiments. HCAEC cultures were maintained at 37° C. in 5% CO2 humidified incubators.
ASMase activity was quantified by radioenzymatic assay using [^14C-methylcholine]sphingomyelin (Amersham) as substrate as described (Schissel et al. J Biol Chem, 271, 18431-18436, 1996). Cell lysates were incubated with [^14C-methylcholine]-sphingomyelin substrate (0.026 mCi/9.5 nmol) in 250 mM sodium acetate, pH 5.0 supplemented with 0.1% Triton X-100 and 1 mM EDTA or 0.1 mM ZnCl. Reactions were terminated after 1 h with CHCl3:MeOH:1N HCl (100:100:1, v/v/v), and [^14C-methylcholine]phosphocholine product in the aqueous layer of the Folch extract was quantified using a Beckman Packard 2200 CA Tricarb scintillation counter. For detection of ASMase activity in patients, 10 μl of serum was used. […]

human cells = conditions: cited from earlier work
CRM = CRM detection by confocal microscopy in BAEC; format: cell-based, bovine; conditions: paclitaxel 100 nM
Protocol: BAEC were grown on CC2-treated chamber slides (Nalge Nunc International Corp., Naperville, USA) and then exposed to etoposide or paclitaxel with or without pre-incubation with Nystatin (30 μg/ml, Sigma) for 30 min. BAEC were then washed in cold PBS, fixed for 15 min in fresh 2% paraformaldehyde, washed 2× with cold PBS, and blocked with 5% FBS in PBS for 20 min at room temperature. Cells were stained with anti-ceramide MID 15B4 IgM (Alexis Corporation) at 1:50 dilution for 1 hour at room temperature, washed 3× in PBS, and thereafter with Texas Red-conjugated secondary antibody (Jackson Immunoresearch Laboratories, Inc.) at 1:500 dilution for 1 hour at room temperature. Nonspecific fluorescence was excluded using isotype control IgM (BD Biosciences). Cells were washed 3×, stained with DAPI and mounted in 0.1% paraphenylenediamine. Fluorescence was detected using Leica TCS SP2 AOBS 1- and 2-photon laser scanning confocal (DMRXA2 upright stand) microscope coupled with MetaMorph 7.5 (Molecular Devices). Number of CRMs in membranes of endothelial cells was analyzed using MetaMorph 7.5 software that allowed outlining of regions containing CRMs based on two criteria: 1) CRM size (≥500 nm); 2) Intensity of ceramide staining. Mice: asmase^+/+ and asmase^−/− mice, maintained in a SCID background, were propagated using heterozygous breeding pairs and genotyped as previously described (Santana et al. Cell, 86, 189-199, 1996; Grassme et al. Nat Med 9, 322-330 (2003). 6-12 week-old C57BL6/SV129 male mice, purchased from The Jackson Laboratory (Bar Harbor).
To test the effect of chemotherapy on ASMase signaling and ceramide production, BAEC were treated with paclitaxel (100 nM) and ASMase activity was determined by radioenzymatic assay (Rotolo et al, infra) using [^14C-methylcholine] sphingomyelin (Amersham) as substrate (FIG. 1A). Induction of ASMase activity was observed within 5 minutes after treatment, and the activation continued for 30 minutes. Ceramide generation was monitored using the diacylglycerol kinase assay (Stancevic et al. PLoS ONE 8, e69025, 2013). […]

| SMILES | Apoptotic response (BAEC) | ASMase activation (ASMase) | ASMase (human cells) | Apoptosis (human cells) | CRM formation peak time (CRM) | CRM formation remained elevated for (CRM) |
| --- | --- | --- | --- | --- | --- | --- |
| N.N.[Cl][Pt][Cl] [cisplatin] | failed to trigger an appropriate apoptotic response | failed to activate ASMase | increase ASMase | induce apoptosis | – | – |
| CC(=O)O[C@H]1C(=O)[C@@]2(C)[C@H]([C@H](OC(=O)c3ccccc3)[C@]3(O)C[C@H](OC(=O)[C@H](O)[C@@H](NC(=O)c4ccccc4)c4ccccc4)C(C)=C1C3(C)C)[C@]1(OC(C)=O)CO[C@@H]1C[C@@H]2O [paclitaxel] | – | – | – | – | 5 min | 30 min |
